From patent US5624923A, “Tricyclic diazepine vasopressin antagonists and oxytocin antagonists” (priority 1995, dated 1997)
Read-outs that look alike come from different tables or passages of the source.

What was measured:
[1] = target: T1, Rat Hepatic V1 Receptors (Rattus norvegicus, UniProt P30560); experiment: Binding Assay to Rat Hepatic V1 Receptors
T1 construct: Rat liver plasma membranes expressing the vasopressin V1 receptor subtypes; from tissue; host or cells: rat liver plasma membranes
Procedure: Binding Assay to Rat Hepatic V1 Receptors
Rat liver plasma membranes expressing the vasopressin V1 receptor subtypes are isolated by sucrose density gradient according to the method described by Lesko et al., (1973). These membranes are quickly suspended in 50.0 mM Tris.HCl buffer, pH 7.4, containing 0.2% bovine serum albumin (BSA) and 0.1 mM phenylmethylsulfonylfluoride (PMSF) and kept frozen at -70° C. until used in subsequent binding experiments. For binding experiments, the following is added to the wells of a ninety-six well format microtiter plate: 100 μl of 100.0 mM Tris.HCl buffer containing 10.0 mM MgCl2, 0.2% heat inactivated BSA and a mixture of protease inhibitors: leupeptin, 1.0 mg %; aprotinin, 1.0 mg %; 1,10-phenanthroiine,2.0 mg %; trypsin inhibitor, 10.0 mg % and 0.1 mM PMSF, 20.0 μl of [phenylalanyl-3,4,5, -^3 H] vasopressin (S.A. 45.1 Ci/mmole) at 0.8 nM, and the reaction initiated by the addition of 80 μl of tissue membranes containing 20 μg of tissue protein. The plates are kept undisturbed on the bench top at room temperature for 120 min. to reach equilibrium. Non-specific samples are assayed in the presence of 0.1 μM of the unlabeled antagonist phenylalanylvasopressin, added in 20.0 μl volume.
(§1) For test compounds, these are solubilized in 50% dimethylsulfoxide (DMSO) and added in 20.0 μl volume to a final incubation volume of 200 μl . Upon completion of binding, the content of each well is filtered off, using a Brandel® cell Harvester (Gaithersburg, Md.). The radioactivity trapped on the filter disk by the ligand-receptor complex is assessed by liquid scintillation counting in a Packard LS Counter, with an efficiency of 65% for tritium. The data are analyzed for IC50 values by the LUNDON-2 program for competition (LUNDON SOFTWARE, Ohio).

[2] = system: Vasopressin V1; experiment: Vasopressin V1 Antagonist Activity in Conscious Rats (vasopressin vasopressor response); type: in vivo, rat; parameters: Average Change: unit not given here; settings: for % Inhibition / Average Change: SHR
Procedure, shortened: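 Conscious rats are restrained supine, and under local 2% procaine a PE 10/20 cannula is passed through the ventral caudal tail artery into the lower abdominal aorta. The caudal vein is cannulated for intravenous dosing. Blood pressure is recorded with a Statham P23Db transducer, and vasopressin injections are repeated after compound dosing. Percent antagonism is calculated against the pre-drug vasopressor response taken as 100%.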

[3] = target: T2, Rat Kidney Medullary V2 Receptors (Rattus norvegicus, UniProt Q00788); experiment: Binding Assay to Rat Kidney Medullary V2 Receptors; settings: rat kidney medulla membranes; read-out: V2 IC50
T2 construct: Medullary tissues from rat kidneys are dissected out; from tissue; host or cells: rat kidney medulla membranes
Procedure: Binding Assay to Rat Kidney Medullary V2 Receptors
Medullary tissues from rat kidneys are dissected out, cut into small pieces and soaked in a […] sodium chloride solution containing 1.0 mM EDTA with many changes of the liquid phase, until the solution is clear of blood. The tissue is homogenized in a 0.25M sucrose solution containing 1.0 mM EDTA and 0.1 mM PMSF using a Potter-Elvehjem homogenizer with a teflon pestle. The homogenate is filtered through several layers (4 layers) of cheese cloth. The filtrate is rehomogenized using a dounce homogenizer, with a tight fitting pestle. The final homogenate is centrifuged at 1500× g for 15 min. The nuclear pellet is discarded and the supernatant fluid recentrifuged at 40,000× g for 30 min. The resulting pellet formed contains a dark inner part with the exterior., slightly pink. The pink outer part is suspended in a small amount of 50.0 mM Tris. HCl buffer, pH 7.4. The protein content is determined by the Lowry's method (Lowry et al., J. Biol. Chem., 1953). The membrane suspension is stored at -70° C. in 50.0 mM Tris HCl, containing 0.2% inactivated BSA and 0.1 mM PMSF in aliquots of 1.0 ml containing 10.0 mg protein per ml of suspension until use in subsequent binding experiments.
as §1, with “The plates are left undisturbed on the bench top for 120 min to reach equilibrium. Non-specific binding is assessed in the presence of 1.0 μM of unlabeled ligand, added in 20 μl volume. For” for “For”, “μl.” for “μl .”

[4] = rat liver membranes; read-out: V1 IC50
[5] = 10 mg/kg i.v., VAS 0.01 i.u./kg, 30 min
[6] = 10 mg/kg i.v., VAS 0.01 i.u./kg, 60 min
[7] = 10 mg/kg i.v., VAS 0.01 i.u./kg, 90 min
[8] = 10 mg/kg i.v., VAS 0.01 i.u./kg, 120 min
[9] = 10 mg/kg i.v., VAS 0.01 i.u./kg, 180 min
[10] = 10 mg/kg i.v., VAS 0.01 i.u./kg, 240 min
[11] = 10 mg/kg i.v., VAS 0.01 i.u./kg, 300 min
[12] = 10 mg/kg i.v., VAS 0.02 i.u./kg, 30 min
[13] = 10 mg/kg i.v., VAS 0.02 i.u./kg, 60 min
[14] = 10 mg/kg i.v., VAS 0.02 i.u./kg, 90 min
[15] = 10 mg/kg i.v., VAS 0.02 i.u./kg, 120 min
[16] = 10 mg/kg i.v., VAS 0.02 i.u./kg, 180 min
[17] = 10 mg/kg i.v., VAS 0.02 i.u./kg, 240 min
[18] = 10 mg/kg i.v., VAS 0.02 i.u./kg, 300 min
[19] = 20 mg/kg i.v., VAS 0.01 i.u./kg, 60 min
[20] = 20 mg/kg i.v., VAS 0.01 i.u./kg, 90 min
[21] = 20 mg/kg i.v., VAS 0.01 i.u./kg, 120 min
[22] = 20 mg/kg i.v., VAS 0.01 i.u./kg, 180 min
[23] = 20 mg/kg i.v., VAS 0.01 i.u./kg, 240 min
[24] = 20 mg/kg i.v., VAS 0.01 i.u./kg, 300 min
[25] = 20 mg/kg i.v., VAS 0.02 i.u./kg, 60 min
[26] = 20 mg/kg i.v., VAS 0.02 i.u./kg, 90 min
[27] = 20 mg/kg i.v., VAS 0.02 i.u./kg, 120 min
[28] = 20 mg/kg i.v., VAS 0.02 i.u./kg, 180 min
[29] = 20 mg/kg i.v., VAS 0.02 i.u./kg, 240 min
[30] = 20 mg/kg i.v., VAS 0.02 i.u./kg, 300 min

T2 sequence (Q00788 whole entry): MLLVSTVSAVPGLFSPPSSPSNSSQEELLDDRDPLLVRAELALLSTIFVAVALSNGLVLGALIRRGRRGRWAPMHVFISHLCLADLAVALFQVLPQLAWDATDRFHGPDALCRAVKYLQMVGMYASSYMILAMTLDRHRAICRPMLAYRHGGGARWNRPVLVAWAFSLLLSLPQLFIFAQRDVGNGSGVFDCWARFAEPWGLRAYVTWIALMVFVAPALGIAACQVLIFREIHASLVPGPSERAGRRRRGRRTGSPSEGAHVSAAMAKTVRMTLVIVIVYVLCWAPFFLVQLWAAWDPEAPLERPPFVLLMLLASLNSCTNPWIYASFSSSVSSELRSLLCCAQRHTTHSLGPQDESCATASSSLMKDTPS
T1 sequence (P30560 whole entry): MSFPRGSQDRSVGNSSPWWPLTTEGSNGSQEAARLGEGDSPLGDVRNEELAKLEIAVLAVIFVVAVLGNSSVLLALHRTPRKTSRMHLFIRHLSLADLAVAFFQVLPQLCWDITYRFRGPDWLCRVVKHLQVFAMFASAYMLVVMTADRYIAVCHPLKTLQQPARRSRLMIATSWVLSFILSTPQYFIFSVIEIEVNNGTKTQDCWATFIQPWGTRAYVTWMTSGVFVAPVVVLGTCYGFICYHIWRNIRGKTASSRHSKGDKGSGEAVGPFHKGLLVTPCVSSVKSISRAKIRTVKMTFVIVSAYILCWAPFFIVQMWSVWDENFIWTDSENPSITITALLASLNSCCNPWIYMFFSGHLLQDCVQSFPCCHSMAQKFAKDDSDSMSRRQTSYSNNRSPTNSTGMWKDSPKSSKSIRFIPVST

Q: For `O=C(Nc1ccc(C(=O)N2Cc3cccn3Cc3ccccc32)cc1)c1ccccc1C(F)(F)F` [Example 91, N-[4-(5H-Pyrrolo[2,1-c][1,4]benzodiazepin-10(11H)-ylcarbonyl)phenyl]-2-(trifluoromethyl)benzamide], which IC50 [1, 4] is on record?
A: 26 nM

Q: What about the “% Inhibition” value [2, 5] of the same molecule?
A: 90%

Q: What about the “Average Change” value [2, 5] of the same molecule?
A: 5

Q: What about the “% Inhibition” value [2, 6] of the same molecule?
A: 87%

Q: What about the “Average Change” value [2, 6] of the same molecule?
A: 6.5

Q: What about the “% Inhibition” value [2, 7] of the same molecule?
A: 81%

Q: And the “Average Change” value [2, 7]?
A: 9

Q: What about the “% Inhibition” value [2, 8] of the same molecule?
A: 73%

Q: And the “Average Change” value [2, 8]?
A: 13

Q: And the “% Inhibition” value [2, 9]?
A: 55%

Q: And the “Average Change” value [2, 9]?
A: 22

Q: What about the “% Inhibition” value [2, 10] of the same molecule?
A: 59%

Q: And the “Average Change” value [2, 10]?
A: 20

Q: And the “% Inhibition” value [2, 11]?
A: 66%

Q: What about the “Average Change” value [2, 11] of the same molecule?
A: 16.5

Q: What about the “% Inhibition” value [2, 12] of the same molecule?
A: 88%

Q: What about the “Average Change” value [2, 12] of the same molecule?
A: 7.5

Q: And the “% Inhibition” value [2, 13]?
A: 89%

Q: What about the “Average Change” value [2, 13] of the same molecule?
A: 7

Q: What about the “% Inhibition” value [2, 14] of the same molecule?
A: 80%

Q: What about the “Average Change” value [2, 14] of the same molecule?
A: 12.5

Q: And the “% Inhibition” value [2, 15]?
A: 72%

Q: What about the “Average Change” value [2, 15] of the same molecule?
A: 17.5

Q: And the “% Inhibition” value [2, 16]?
A: 54%

Q: What about the “Average Change” value [2, 16] of the same molecule?
A: 29

Q: What about the “% Inhibition” value [2, 17] of the same molecule?
A: 53%

Q: What about the “Average Change” value [2, 17] of the same molecule?
A: 29.5

Q: What about the “% Inhibition” value [2, 18] of the same molecule?
A: 48%

Q: And the “Average Change” value [2, 18]?
A: 32.5

Q: What about the IC50 [3] of the same molecule?
A: 22 nM

Q: `Cc1ccccc1NC(=O)Nc1ccc(C(=O)N2Cc3cccn3Cc3ccccc32)cc1` [Example 116, 10,11-Dihydro-10-[4-[[[(2-methylphenyl]amino]-carbonl]amino]benzoyl]-5H-pyrrolo[2,1-c]-[1,4]benzodiazepine] was tested. Which IC50 ([1]; read-out: V1 IC50; rat liver membranes) did it give?
A: 280 nM

Q: And the “% Inhibition” value [2, 5]?
A: 22%

Q: And the “Average Change” value [2, 5]?
A: 22.5

Q: And the “% Inhibition” value [2, 6]?
A: 38%

Q: What about the “Average Change” value [2, 6] of the same molecule?
A: 18

Q: What about the “% Inhibition” value [2, 7] of the same molecule?
A: 34%

Q: What about the “Average Change” value [2, 7] of the same molecule?
A: 19

Q: And the “% Inhibition” value [2, 8]?
A: 33%

Q: And the “Average Change” value [2, 8]?
A: 19.5

Q: And the “% Inhibition” value [2, 9]?
A: 38%

Q: And the “Average Change” value [2, 9]?
A: 18

Q: What about the “% Inhibition” value [2, 10] of the same molecule?
A: 45%

Q: What about the “Average Change” value [2, 10] of the same molecule?
A: 16

Q: And the “% Inhibition” value [2, 11]?
A: 24%

Q: What about the “Average Change” value [2, 11] of the same molecule?
A: 22

Q: And the “% Inhibition” value [2, 12]?
A: 24%

Q: What about the “Average Change” value [2, 12] of the same molecule?
A: 36.5

Q: And the “% Inhibition” value [2, 13]?
A: 30%

Q: What about the “Average Change” value [2, 13] of the same molecule?
A: 33.5

Q: And the “% Inhibition” value [2, 14]?
A: 33%

Q: And the “Average Change” value [2, 14]?
A: 32

Q: And the “% Inhibition” value [2, 15]?
A: 17%

Q: And the “Average Change” value [2, 15]?
A: 40

Q: And the “% Inhibition” value [2, 16]?
A: 17%

Q: What about the “Average Change” value [2, 16] of the same molecule?
A: 40

Q: What about the “% Inhibition” value [2, 17] of the same molecule?
A: 20%

Q: And the “Average Change” value [2, 17]?
A: 38.5

Q: And the “% Inhibition” value [2, 18]?
A: 14%

Q: And the “Average Change” value [2, 18]?
A: 41.5

Q: And the IC50 [3]?
A: 85 nM

Q: Which IC50 [1, 4] does the source give for `O=C(Nc1ccc(C(=O)N2Cc3cccn3Cc3ccccc32)cc1)c1ccc2[nH]ccc2c1` [Example 117, N-[4-(5H-pyrrolo[2,1-c][1,4]benzodiazepin-10(11H)-ylcarbonyl)phenyl]-1H-indole-5-carboxamide] here?
A: 2770 nM

Q: What about the “% Inhibition” value [2, 5] of the same molecule?
A: 1%

Q: What about the “Average Change” value [2, 5] of the same molecule?
A: 36

Q: What about the “% Inhibition” value [2, 12] of the same molecule?
A: -12%

Q: And the “Average Change” value [2, 12]?
A: 63

Q: What about the “% Inhibition” value [2, 19] of the same molecule?
A: 1%

Q: And the “Average Change” value [2, 19]?
A: 36

Q: And the “% Inhibition” value [2, 20]?
A: 38%

Q: And the “Average Change” value [2, 20]?
A: 22.5

Q: What about the “% Inhibition” value [2, 21] of the same molecule?
A: 37%

Q: What about the “Average Change” value [2, 21] of the same molecule?
A: 23

Q: What about the “% Inhibition” value [2, 22] of the same molecule?
A: 27%

Q: And the “Average Change” value [2, 22]?
A: 26.5

Q: And the “% Inhibition” value [2, 23]?
A: 32%

Q: What about the “Average Change” value [2, 23] of the same molecule?
A: 25

Q: And the “% Inhibition” value [2, 24]?
A: 29%

Q: What about the “Average Change” value [2, 24] of the same molecule?
A: 26

Q: And the “% Inhibition” value [2, 25]?
A: 29%

Q: What about the “Average Change” value [2, 25] of the same molecule?
A: 40

Q: What about the “% Inhibition” value [2, 26] of the same molecule?
A: 19%

Q: And the “Average Change” value [2, 26]?
A: 46

Q: And the “% Inhibition” value [2, 27]?
A: 33%

Q: And the “Average Change” value [2, 27]?
A: 38

Q: What about the “% Inhibition” value [2, 28] of the same molecule?
A: 19%

Q: What about the “Average Change” value [2, 28] of the same molecule?
A: 46

Q: And the “% Inhibition” value [2, 29]?
A: 28%

Q: What about the “Average Change” value [2, 29] of the same molecule?
A: 40.5

Q: And the “% Inhibition” value [2, 30]?
A: 25%

Q: And the “Average Change” value [2, 30]?
A: 42.5

Q: What about the IC50 [3] of the same molecule?
A: 377 nM

Q: What does the source list for `Cc1ccccc1C(=O)Nc1ccc(C(=O)N2Cc3cccn3Cc3sccc32)cc1` [Example 267, N-[4-(5H-Pyrrolo[1,2-a]thieno[3,2-e][1,4]diazepin-4(10H)-ylcarbonyl)phenyl]-2-methylbenzamide]?
A: IC50 [1, 4]: 220 nM; Max. % Inhibition ([2]; 10 mg/kg i.v.): 56%; Time (of max. % inhibition) ([2]; 10 mg/kg i.v.): 60 min; IC50 [3]: 28 nM
